Results reported in patent US8288379B2, “Thia-triaza-cyclopentazulenes” (Boehringer Ingelheim International GmbH, priority 2009, dated 2012).

Tests used:
FRAP1 (mTOR) kinase = biological target: T1, FRAP1 (mTOR) kinase (Homo sapiens, UniProt P42345); experiment: Inhibition of mTOR-induced p-4E-BP1 phosphorylation (TR-FRET mTOR Activity Kit; Invitrogen); format: biochemical; settings: 400 nM GFP-4E-BP1 substrate, ~150 ng/mL mTOR, one hour at room temperature
T1 construct: purchased Invitrogen PV4753
T1 sequence (P42345 1360-2549 limits assumed): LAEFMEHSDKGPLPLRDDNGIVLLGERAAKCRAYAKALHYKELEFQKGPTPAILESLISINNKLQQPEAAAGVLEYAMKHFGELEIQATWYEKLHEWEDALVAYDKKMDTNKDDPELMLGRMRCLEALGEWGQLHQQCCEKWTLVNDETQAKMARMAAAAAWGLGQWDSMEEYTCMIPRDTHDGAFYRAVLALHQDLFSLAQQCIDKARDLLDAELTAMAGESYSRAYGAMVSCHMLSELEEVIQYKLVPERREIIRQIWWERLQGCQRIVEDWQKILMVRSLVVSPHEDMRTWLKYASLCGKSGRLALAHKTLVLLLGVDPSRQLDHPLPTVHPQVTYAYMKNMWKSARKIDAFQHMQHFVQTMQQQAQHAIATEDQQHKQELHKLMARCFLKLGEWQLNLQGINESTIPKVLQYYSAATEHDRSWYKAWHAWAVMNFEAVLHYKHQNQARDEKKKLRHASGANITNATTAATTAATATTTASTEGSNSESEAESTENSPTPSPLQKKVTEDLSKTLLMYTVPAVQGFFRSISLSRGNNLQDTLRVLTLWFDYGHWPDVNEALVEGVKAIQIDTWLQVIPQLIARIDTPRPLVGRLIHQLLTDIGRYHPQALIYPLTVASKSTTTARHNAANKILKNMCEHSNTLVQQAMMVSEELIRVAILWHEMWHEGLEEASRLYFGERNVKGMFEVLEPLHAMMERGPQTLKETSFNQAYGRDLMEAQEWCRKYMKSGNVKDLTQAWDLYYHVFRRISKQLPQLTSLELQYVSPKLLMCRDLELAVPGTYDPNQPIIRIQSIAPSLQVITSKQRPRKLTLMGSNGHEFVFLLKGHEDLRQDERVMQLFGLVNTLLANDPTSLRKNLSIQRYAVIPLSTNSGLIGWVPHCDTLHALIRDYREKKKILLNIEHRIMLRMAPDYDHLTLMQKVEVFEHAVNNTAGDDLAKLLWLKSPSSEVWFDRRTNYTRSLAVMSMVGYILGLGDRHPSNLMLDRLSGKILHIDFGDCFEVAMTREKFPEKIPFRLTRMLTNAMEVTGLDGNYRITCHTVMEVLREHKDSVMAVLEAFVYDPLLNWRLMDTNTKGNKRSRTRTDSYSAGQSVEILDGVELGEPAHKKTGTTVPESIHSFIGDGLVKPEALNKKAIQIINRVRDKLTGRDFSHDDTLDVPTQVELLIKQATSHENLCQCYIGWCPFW
In short: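 LanthaScreen TR-FRET: mTOR with GFP-4E-BP1 substrate in HEPES pH 7.5 buffer with 10 mM MnCl2, compound preincubated 30 min at RT, then ATP added and reacted 1 h at 20-25 °C. Stopped with EDTA plus Tb-anti-p4E-BP1 (pThr46), 1 h; GFP/Tb emission ratio over a 16-point curve, sigmoidal fit for IC50.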

PC-3 cells = experiment: Inhibition of proliferation: CyQuant PC-3; format: cell-based; settings: 72 h; PC-3 human prostate carcinoma cells, incubated with compounds for 3 days, CyQuant NF DNA dye
In short: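 PC-3 proliferation read by CyQuant NF: DNA-binding dye with membrane permeabilization reagent added after medium removal, 30-60 min incubation, fluorescence at Ex 485/Em 530 nm. Proliferation judged from cell counts of drug-treated versus untreated controls.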

Row | SMILES | IC50 (FRAP1 (mTOR) kinase) | EC50 (PC-3 cells)
1 | COCC(=O)Nc1nc2c(s1)-c1c(c(-c3ccc(N)nc3)nn1-c1ccccc1F)CCC2 [Example E-18, N-[3-(6-Amino-pyridin-3-yl)-1-(2-fluoro-phenyl)-1,4,5,6-tetrahydro-9-thia-1,2,7-triaza-cyclopenta[e]azulen-8-yl]-2-methoxy-acetamide] | 0.059 µM | 0.087 µM
2 | CNc1ccc(-c2nn(-c3ccccc3Cl)c3c2CCCc2nc(NC(C)=O)sc2-3)cn1 [Example B-28, N-[1-(2-Chloro-phenyl)-3-(6-methylamino-pyridin-3-yl)-1,4,5,6-tetrahydro-9-thia-1,2,7-triaza-cyclopenta[e]azulen-8-yl]-acetamide] | 0.05 µM | 0.07 µM
3 | CN(C)C(=O)Nc1nc2c(s1)-c1c(c(-c3ccc(N)nc3)nn1-c1ccccc1Cl)CCC2 [Example B-54] | 0.57 µM | 0.39 µM
4 | CCNc1ccc(-c2nn(-c3ccccc3Cl)c3c2CCCc2nc(NC(C)=O)sc2-3)cn1 [Example B-75] | 0.049 µM | 0.113 µM
